Like-named read-outs stand apart in the source and are kept apart here.
Columns and labels:
[1] = tested on: Behcet's Disease; experiment: Case reports: patients with exacerbation of Behcet's Disease; format: in vivo, human
From the text: Behcet's Syndrome is a worldwide disorder that seems to be more severe and more common along the Silk Route and in Japan.
This happened back in the year 2000.

[2] = tested on: bacteria; conditions: virus specimens; more potent when mixed with serum; cited from earlier work
[3] = in vivo, cited from earlier work
[4] = tested on: Myasthenia Gravis without Thymoma; experiment: Case report: patient with Myasthenia Gravis given intravenous nutritional infusion; format: in vivo, human; conditions: day 5 of the hospitalization
Protocol: In 1990 I began to treat a patient with Myasthenia Gravis without Thymoma, an autoimmune disorder, which causes a decrease in the availability of Acetylcholine at the muscle endplate. Pyridostigmine, which increases the amount of Acetylcholine available at the endplate, and later Prednisone, was added for control of their myasthenia. The later acts by reducing the inflammatory response at the muscle endplate. In 1992 they underwent a bowel operation for correction of an enterorectal fistula and was unable to eat orally or gastrically to be fed. They were put on the standardized intravenous nutritional protocol in the hospital in which I worked, which included 3% Glycerin plus 3% Amino Acids, (see Table 1) at a rate of 100 ccs/hour. This was given for 6 days. There was no change in their Myasthenia Gravis. Twelve days later they were readmitted with abdominal pain and the same IV nutrition was administered. On day 5 of the hospitalization they developed a cholinergic crisis, which was relieved by Atropine. Pyridostigmine and Prednisone were discontinued. […] They were readmitted to the hospital 4 years later because of difficulty swallowing and again was given intravenous 3% Glycerin and 3% Amino Acids. […]

With `C[C@]12C=CC(=O)C=C1CC[C@@H]1[C@@H]2C(=O)C[C@@]2(C)[C@H]1CC[C@]2(O)C(=O)CO` [Prednisone, reference compound] as the compound, how does the “response of Behcet's exacerbation” value ([1]; eleven patients, high dose) read?
Its value is “failed to respond”.

And the “response of Behcet's exacerbations” value ([1]; over 20 patients since 2000, high doses)?
Its value is “usually responded”.

Which “rate of improvement in autoimmune diseases, especially Behcet's Disease” value ([1]; inventor's review of the cases) does the source give for `OCC(O)CO` [Glycerin] here?
Its value is “quick or rapid improvement”.

And the “central nervous system involvement” value ([1]; one patient with neuro-Behcet's disease)?
The value was “improved central nervous system involvement rapidly”.

And the “bacteria in the specimens” value [2]?
The value was “reduced bacteria”.

And the toxicity [3]?
Its toxicity is “low toxicity”.

What about the toxicity ([3]; listed as Sterilized Glycerin) of the same compound?
Its toxicity is “non-toxic”.

With `CN1[C@@H]2CC[C@H]1C[C@@H](OC(=O)C(CO)c1ccccc1)C2` (some centres unmarked) [Atropine] as the compound, how does the cholinergic crisis [4] read?
The cholinergic crisis was “relieved”.

Source: US20130123319A1, “Medthod of Treating a systemic inflammatory disorder and damaged internal tissues” (priority 2011, published 2013)
